Assays:
HORVW (winter barley) = experiment: Greenhouse post-emergence weed control, damage vs untreated (HORVW); format: in vivo, Hordeum vulgare; details: 20 DAT
AVEFA (wild oat) = experiment: Greenhouse post-emergence weed control, damage vs untreated (AVEFA); format: in vivo, Avena fatua
Method: (§1) A greenhouse study was conducted to evaluate the effect of the alkylether sulfates of formula (I) and other adjuvants on the weed control efficacy of glufosinate. Seedlings of grass plants (AVEFA, ECHCG, DIGSA and SETVI) and broadleaf weeds (KCHSC, CHEAL, AMAPA, AMATA and ABUTH) were grown to a height of 3 to 20 cm, depending on the plant habit in 10×10×10 cm pots filled with sandy planting soil (Limburgerhof soil). The weeds were treated with postemergence applications of glufosinate ammonium at the respective application rates given in the following tables, either alone or combined with various amounts of the respective adjuvants.
(§2) For this, the herbicide formulation and the respective adjuvant were introduced into tap water to obtain the spray liquor. […] The spray liquor was then applied to the plant a spray volume of 200 l/ha using a sprayer (XR Teejet 110015).
(§3) The test period extended over 21 days. During this time, the plants were tended, and their response to the treatments with active compound was evaluated.
(§4) The evaluation for the damage caused by the chemical compositions was carried out using a scale from 0 to 100%, compared to the untreated control plants. Here, 0 means no damage and 100 means complete destruction of the plants.
(§5) The plants used in the greenhouse experiments belonged to the following species:
(§6) The results are summarized in the following tables 1 to 15 that show the applied doses of the individual actives as gram of active ingredient per hectare (g ai/ha), the herbicidal activity of the individual […]

ECHCG (barnyardgrass) = experiment: Greenhouse post-emergence weed control, damage vs untreated (ECHCG); format: in vivo, Echinochloa crus-galli
Method: as §1, §2, §3, §4, §5, §6

DIGSA (large crabgrass) = experiment: Greenhouse post-emergence weed control, damage vs untreated (DIGSA); format: in vivo, Digitaria sanguinalis; details: 20 DAT
Method: as §1, §2, §3, §4
(§7) The plants used in the greenhouse experiments belonged to the following species: […]

SETVI (green foxtail) = experiment: Greenhouse post-emergence weed control, damage vs untreated (SETVI); format: in vivo, Setaria viridis
Method: as §1, §2, §3, §4, §5, §6

[1] = tested on: Øgras (average value of AVEFA, ECHCG, DIGSA and SETVI); experiment: Greenhouse post-emergence weed control, average over grasses (Øgras); format: in vivo
Method: as §1, §2, §3, §4, §5, §6

KCHSC (kochia) = experiment: Greenhouse post-emergence weed control, damage vs untreated (KCHSC); format: in vivo, Kochia scoparia; details: 20 DAT
Method: as §1, §2, §3, §4, §7

CHEAL (lambsquarter) = experiment: Greenhouse post-emergence weed control, damage vs untreated (CHEAL); format: in vivo, Chenopodium album
Method: as §1, §2, §3, §4, §5, §6

ABUTH (velvetleaf) = experiment: Greenhouse post-emergence weed control, damage vs untreated (ABUTH); format: in vivo, Abutilon theophrasti; details: 20 DAT
Method: as §1, §2
[…] During this time, the plants were tended, and their response to the treatments with active compound was evaluated.
as §4, §7

[2] = tested on: ØBLV (average value of KCHSC, CHEAL, AMAPA, AMATA and ABUTH); experiment: Greenhouse post-emergence weed control, average over broadleaf weeds (ØBLV); format: in vivo; details: 20 DAT
Method: as §1, §2, §3, §4, §5
(§8) The results are summarized in the following tables 1 to 15 that show the applied doses of the individual actives as gram of active ingredient per hectare (g ai/ha), the herbicidal activity of the individual actives and of their combinations in post-emergence application assessed 14 and 28 day after treatment (DAT), respectively.

HORVS (spring barley) = experiment: Greenhouse post-emergence weed control, damage vs untreated (HORVS); format: in vivo; details: 20 DAT
TRZAS (spring wheat) = experiment: Greenhouse post-emergence weed control, damage vs untreated (TRZAS); format: in vivo, Soft wheat (spring)
AMATU (tall waterhemp) = experiment: Greenhouse post-emergence weed control, damage vs untreated (AMATU); format: in vivo, Amaranthus tuberculatus; details: 20 DAT
Method: as §1, §2, §3, §4, §5, §8

[3] = tested on: ØBLV = Σ % activity (CHEAL + KCHSC + AMATU + ABUTH)/4; experiment: Greenhouse post-emergence weed control, average over broadleaf weeds (ØBLV, Tables 16-20); format: in vivo; details: average of CHEAL
[4] = 5 g ai/ha L-glufosinate (so in the source), no adjuvant
[5] = 37.5 g ai/ha L-glufosinate, adjuvant g ai/ha: none (CE1-B), 56 (IE2-A), 62.125 (IE2-B), 51.625 (CE2-F)
[6] = 150 g ai/ha L-glufosinate, adjuvant g ai/ha: none (CE1-B), 223 (IE2-A), 248.5 (IE2-B), 206.5 (CE2-F)
[7] = 300 g ai/ha L-glufosinate, adjuvant g ai/ha: none (CE1-B), 446 (IE2-A), 497 (IE2-B), 413 (CE2-F)
[8] = g ai/ha: 42.375 solo (CE1-C), 42.375 + 66.97 combined (IE3-A/B/C, CE2-J)
[9] = g ai/ha: 84.75 solo (CE1-C), 84.75 + 133.94 combined (IE3-A/B/C, CE2-J)
[10] = g ai/ha: 169.5 solo (CE1-C), 169.5 + 267.89 combined (IE3-A/B/C, CE2-J)
[11] = g ai/ha: 339 solo (CE1-C), 339 + 535.77 combined (IE3-A/B/C, CE2-J)

CP(=O)(O)CC[C@H](N)C(=O)O.N [CE1-B, ammonium (2S)-2-amino-4-(methylphosphinato)butyric acid]
% activity (HORVW (winter barley); [4]): 0%
% activity (HORVW (winter barley); [5]): 5%
% activity (HORVW (winter barley); [6]): 5%
% activity (HORVW (winter barley); [7]): 15%
% activity (AVEFA (wild oat); [4]): 5%
% activity (AVEFA (wild oat); [5]): 0%
% activity (AVEFA (wild oat); [6]): 10%
% activity (AVEFA (wild oat); [7]): 20%
% activity AVEFA (AVEFA (wild oat); [8]): 3%
% activity AVEFA (AVEFA (wild oat); [9]): 3%
% activity AVEFA (AVEFA (wild oat); [10]): 5%
% activity AVEFA (AVEFA (wild oat); [11]): 8%
% activity (ECHCG (barnyardgrass); [4]): 0%
% activity (ECHCG (barnyardgrass); [5]): 0%
% activity (ECHCG (barnyardgrass); [6]): 20%
% activity (ECHCG (barnyardgrass); [7]): 60%
% activity ECHCG (ECHCG (barnyardgrass); [8]): 0%
% activity ECHCG (ECHCG (barnyardgrass); [9]): 3%
% activity ECHCG (ECHCG (barnyardgrass); [10]): 3%
% activity ECHCG (ECHCG (barnyardgrass); [11]): 20%
% activity (DIGSA (large crabgrass); [4]): 0%
% activity DIGSA (DIGSA (large crabgrass); [8]): 5%
% activity DIGSA (DIGSA (large crabgrass); [9]): 15%
% activity DIGSA (DIGSA (large crabgrass); [10]): 55%
% activity DIGSA (DIGSA (large crabgrass); [11]): 70%
% activity (DIGSA (large crabgrass); [5]): 0%
% activity (DIGSA (large crabgrass); [6]): 30%
% activity (DIGSA (large crabgrass); [7]): 40%
% activity (SETVI (green foxtail); [4]): 98%
% activity (SETVI (green foxtail); [5]): 85%
% activity (SETVI (green foxtail); [6]): 98%
% activity (SETVI (green foxtail); [7]): 95%
% activity (Øgras) [1, 4]: 26%
% activity (Øgras) [1, 5]: 21%
% activity (Øgras) [1, 6]: 40%
% activity (Øgras) [1, 7]: 54%
% activity (KCHSC (kochia); [4]): 5%
% activity KCHSC (KCHSC (kochia); [8]): 3%
% activity KCHSC (KCHSC (kochia); [9]): 3%
% activity KCHSC (KCHSC (kochia); [10]): 28%
% activity KCHSC (KCHSC (kochia); [11]): 35%
% activity (KCHSC (kochia); [5]): 0%
% activity (KCHSC (kochia); [6]): 5%
% activity (KCHSC (kochia); [7]): 10%
% activity (CHEAL (lambsquarter); [4]): 0%
% activity (CHEAL (lambsquarter); [5]): 0%
% activity (CHEAL (lambsquarter); [6]): 0%
% activity (CHEAL (lambsquarter); [7]): 15%
% activity CHEAL (CHEAL (lambsquarter); [8]): 0%
% activity CHEAL (CHEAL (lambsquarter); [9]): 0%
% activity CHEAL (CHEAL (lambsquarter); [10]): 5%
% activity CHEAL (CHEAL (lambsquarter); [11]): 10%
% activity (ABUTH (velvetleaf); [4]): 10%
% activity ABUTH (ABUTH (velvetleaf); [8]): 5%
% activity ABUTH (ABUTH (velvetleaf); [10]): 30%
% activity ABUTH (ABUTH (velvetleaf); [11]): 68%
% activity (ABUTH (velvetleaf); [5]): 10%
% activity (ABUTH (velvetleaf); [6]): 30%
% activity (ABUTH (velvetleaf); [7]): 60%
% activity (ØBLV) [2, 4]: 34%
% activity (ØBLV) [2, 5]: 26%
% activity (ØBLV) [2, 6]: 46%
% activity (ØBLV) [2, 7]: 56%
% activity HORVS (HORVS (spring barley); [8]): 0%
% activity HORVS (HORVS (spring barley); [9]): 0%
% activity HORVS (HORVS (spring barley); [10]): 0%
% activity HORVS (HORVS (spring barley); [11]): 10%
% activity TRZAS (TRZAS (spring wheat); [8]): 0%
% activity TRZAS (TRZAS (spring wheat); [9]): 0%
% activity TRZAS (TRZAS (spring wheat); [10]): 5%
% activity TRZAS (TRZAS (spring wheat); [11]): 5%
% activity AMATU (AMATU (tall waterhemp); [8]): 23%
% activity AMATU (AMATU (tall waterhemp); [9]): 75%
% activity AMATU (AMATU (tall waterhemp); [10]): 45%
% activity AMATU (AMATU (tall waterhemp); [11]): 97%
% activity (ØBLV) [3, 8]: 8%
% activity (ØBLV) [3, 9]: 26%
% activity (ØBLV) [3, 10]: 27%
% activity (ØBLV) [3, 11]: 53%
